Assays:
[1] = molecular target: MAP kinase-activated protein kinase 2 (Homo sapiens) (UniProt P49137); assay: Inhibition of human MAPKAPK2 at 1.82 nM by HotSpot assay relative to control
[2] = molecular target: Casein kinase I isoform epsilon (Homo sapiens) (UniProt P49674); assay: Inhibition of human CK1epsilon at 1.82 nM by HotSpot assay relative to control
[3] = molecular target: Death-associated protein kinase 3 (Homo sapiens) (UniProt O43293); assay: Inhibition of human DAPK3 at 1.82 nM by HotSpot assay relative to control
[4] = molecular target: T1, Serine/threonine-protein kinase Nek1 (Homo sapiens) (UniProt Q96PY6); assay: Inhibition of human NEK1 at 1.82 nM by HotSpot assay relative to control
T1 sequence (whole entry): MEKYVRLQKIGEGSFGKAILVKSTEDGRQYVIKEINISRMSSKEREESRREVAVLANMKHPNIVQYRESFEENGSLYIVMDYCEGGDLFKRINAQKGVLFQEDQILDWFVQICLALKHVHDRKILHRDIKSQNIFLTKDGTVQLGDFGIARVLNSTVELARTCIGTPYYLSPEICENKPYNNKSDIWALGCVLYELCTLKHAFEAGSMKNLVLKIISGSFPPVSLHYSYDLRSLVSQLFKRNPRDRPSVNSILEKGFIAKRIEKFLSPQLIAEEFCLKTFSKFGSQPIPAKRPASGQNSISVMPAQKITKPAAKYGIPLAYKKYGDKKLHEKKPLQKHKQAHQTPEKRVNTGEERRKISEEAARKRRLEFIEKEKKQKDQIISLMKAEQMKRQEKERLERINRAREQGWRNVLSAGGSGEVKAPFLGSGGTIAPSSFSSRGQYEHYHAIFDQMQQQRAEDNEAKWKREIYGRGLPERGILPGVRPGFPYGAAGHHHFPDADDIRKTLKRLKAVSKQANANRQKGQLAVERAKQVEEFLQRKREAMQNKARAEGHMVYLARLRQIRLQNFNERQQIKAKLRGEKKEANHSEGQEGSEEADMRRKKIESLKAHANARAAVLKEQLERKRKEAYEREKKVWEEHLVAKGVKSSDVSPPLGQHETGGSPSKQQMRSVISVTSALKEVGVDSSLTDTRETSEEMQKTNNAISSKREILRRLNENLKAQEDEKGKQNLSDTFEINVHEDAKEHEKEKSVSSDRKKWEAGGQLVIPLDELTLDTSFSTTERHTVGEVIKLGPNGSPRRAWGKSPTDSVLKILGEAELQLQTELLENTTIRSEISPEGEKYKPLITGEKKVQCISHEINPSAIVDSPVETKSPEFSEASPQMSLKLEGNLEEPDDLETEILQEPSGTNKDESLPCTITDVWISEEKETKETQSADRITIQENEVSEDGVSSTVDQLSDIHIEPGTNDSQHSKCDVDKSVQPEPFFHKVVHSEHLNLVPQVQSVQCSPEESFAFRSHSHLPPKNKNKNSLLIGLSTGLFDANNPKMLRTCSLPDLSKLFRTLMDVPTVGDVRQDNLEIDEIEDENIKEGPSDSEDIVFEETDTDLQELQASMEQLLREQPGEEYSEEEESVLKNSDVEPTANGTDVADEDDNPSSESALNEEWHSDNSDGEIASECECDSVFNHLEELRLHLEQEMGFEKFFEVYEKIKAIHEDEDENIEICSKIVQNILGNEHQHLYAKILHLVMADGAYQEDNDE

[5] = molecular target: T2, Muscle, skeletal receptor tyrosine-protein kinase (Homo sapiens) (UniProt O15146); assay: Inhibition of human MUSK at 18.6 nM by HotSpot assay relative to control
T2 sequence (whole entry): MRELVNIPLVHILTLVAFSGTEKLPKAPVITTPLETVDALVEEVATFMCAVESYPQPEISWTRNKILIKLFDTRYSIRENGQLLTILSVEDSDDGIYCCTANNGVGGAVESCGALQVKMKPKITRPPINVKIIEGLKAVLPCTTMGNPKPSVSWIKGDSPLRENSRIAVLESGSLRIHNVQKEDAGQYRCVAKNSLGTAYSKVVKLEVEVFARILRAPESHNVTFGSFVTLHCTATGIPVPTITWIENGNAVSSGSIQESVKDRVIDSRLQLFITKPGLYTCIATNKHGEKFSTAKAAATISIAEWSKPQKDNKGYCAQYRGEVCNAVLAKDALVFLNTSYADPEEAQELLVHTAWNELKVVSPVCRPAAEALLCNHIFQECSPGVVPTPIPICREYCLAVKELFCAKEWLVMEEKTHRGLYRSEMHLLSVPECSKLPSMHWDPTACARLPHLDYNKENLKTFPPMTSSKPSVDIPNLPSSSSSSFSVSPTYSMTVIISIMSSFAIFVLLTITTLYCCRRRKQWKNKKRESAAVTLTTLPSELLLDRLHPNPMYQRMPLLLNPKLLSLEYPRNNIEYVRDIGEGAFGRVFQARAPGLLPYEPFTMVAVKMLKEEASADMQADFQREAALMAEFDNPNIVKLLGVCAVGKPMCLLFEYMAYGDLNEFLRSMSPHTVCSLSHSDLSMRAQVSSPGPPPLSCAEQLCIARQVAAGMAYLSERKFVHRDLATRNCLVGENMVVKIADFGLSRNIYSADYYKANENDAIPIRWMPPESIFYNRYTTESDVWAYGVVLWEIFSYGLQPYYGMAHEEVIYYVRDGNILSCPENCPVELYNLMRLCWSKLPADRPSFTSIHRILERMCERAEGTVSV

Chain of MAP kinase-activated protein kinase 2 (Homo sapiens) (P49137 whole entry, looked up, canonical isoform): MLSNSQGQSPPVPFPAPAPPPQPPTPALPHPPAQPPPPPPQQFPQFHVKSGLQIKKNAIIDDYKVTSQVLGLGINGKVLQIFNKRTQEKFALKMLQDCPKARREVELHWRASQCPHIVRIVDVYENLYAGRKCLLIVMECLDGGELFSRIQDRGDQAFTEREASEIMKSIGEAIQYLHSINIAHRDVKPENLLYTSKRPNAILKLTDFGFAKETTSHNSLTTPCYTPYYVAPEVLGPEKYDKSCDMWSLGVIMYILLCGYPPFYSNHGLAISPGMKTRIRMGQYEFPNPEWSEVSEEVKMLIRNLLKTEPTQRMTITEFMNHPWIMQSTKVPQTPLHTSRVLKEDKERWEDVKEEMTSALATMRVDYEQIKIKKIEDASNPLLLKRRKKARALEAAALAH
Chain of Casein kinase I isoform epsilon (Homo sapiens) (P49674 whole entry, looked up, canonical isoform): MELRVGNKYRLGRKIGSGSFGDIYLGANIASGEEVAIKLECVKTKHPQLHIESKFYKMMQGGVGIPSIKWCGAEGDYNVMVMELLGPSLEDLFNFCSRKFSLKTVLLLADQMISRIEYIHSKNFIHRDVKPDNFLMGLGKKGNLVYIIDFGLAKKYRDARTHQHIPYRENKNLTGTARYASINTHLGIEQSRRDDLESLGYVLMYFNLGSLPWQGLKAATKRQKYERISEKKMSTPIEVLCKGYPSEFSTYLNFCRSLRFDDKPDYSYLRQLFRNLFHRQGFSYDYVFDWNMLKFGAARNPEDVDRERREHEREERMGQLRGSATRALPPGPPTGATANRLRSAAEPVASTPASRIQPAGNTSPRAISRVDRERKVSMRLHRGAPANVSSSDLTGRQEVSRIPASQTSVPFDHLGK
Chain of Death-associated protein kinase 3 (Homo sapiens) (O43293 whole entry, looked up): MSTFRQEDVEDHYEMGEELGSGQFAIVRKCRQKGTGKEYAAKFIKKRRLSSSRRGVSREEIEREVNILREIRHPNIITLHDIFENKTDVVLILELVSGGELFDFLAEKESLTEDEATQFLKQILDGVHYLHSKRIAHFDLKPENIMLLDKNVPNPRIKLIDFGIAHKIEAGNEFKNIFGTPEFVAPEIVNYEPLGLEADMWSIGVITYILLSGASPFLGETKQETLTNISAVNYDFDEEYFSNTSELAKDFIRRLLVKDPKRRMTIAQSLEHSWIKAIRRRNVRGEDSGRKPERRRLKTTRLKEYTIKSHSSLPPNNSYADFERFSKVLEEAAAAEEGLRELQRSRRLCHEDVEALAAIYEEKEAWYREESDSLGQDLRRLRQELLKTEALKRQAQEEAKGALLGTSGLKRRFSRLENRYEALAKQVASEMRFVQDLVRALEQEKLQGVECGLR

Structure (SMILES): C[C@@]1(C(=O)Nc2ccc(F)nc2)CCCN1c1nc(Nc2cc(C3CC3)n[nH]2)c2cccn2n1
- inhibition [1]: 0.98%
- inhibition [2]: 1.26%
- inhibition [3]: 10.5%
- inhibition [4]: -2.03%

Structure (SMILES): C[C@]1(O)C[C@@H](c2nc(-c3ccc4ccc(-c5ccccc5)nc4c3)c3c(N)nccn32)C1
- inhibition [5]: 1.47%
